Starred links: 1 amine or outer side, 2 acyl side, 3 side chain; linkers in the order of their positions; H or OH if unused. Non-standard residues stand in square brackets, D forms with d. Residues, ends and D or L forms follow the SMILES beside them. Groups on a side chain read outwards from the residue. *: point of attachment. Phe(4-CH2NH2) = NCc1ccc(C[C@H](N)C(=O)O)cc1; C16 diacid = O=C(O)CCCCCCCCCCCCCCC(=O)*; γGlu = O=C(O)[C@H](CCC(=O)[*:2])N[*:1]; Met(O2) = CS(=O)(=O)CC[C@H](N)C(=O)O; AEEA = NCCOCCOCC(=O)O; Aib = CC(C)(N)C(=O)O
Columns and labels:
human GCGR = target: T1, human GCGR (Homo sapiens, UniProt P47871); assay: cAMP activity assay, cells expressing human GCGR; format: cell-based; details: for EC50: cAMP production, cells expressing human GCGR, assay buffer with or without 20% human serum (not stated which), read-out: GCGR EC50 human; for hGCGR/hGLP1R (hTone): ratio of human GCGR EC50 to human GLP1R EC50
T1 construct: expressed in transfected cells; kept under Blasticidin and Hygromycin selection
T1 sequence (P47871 26-477): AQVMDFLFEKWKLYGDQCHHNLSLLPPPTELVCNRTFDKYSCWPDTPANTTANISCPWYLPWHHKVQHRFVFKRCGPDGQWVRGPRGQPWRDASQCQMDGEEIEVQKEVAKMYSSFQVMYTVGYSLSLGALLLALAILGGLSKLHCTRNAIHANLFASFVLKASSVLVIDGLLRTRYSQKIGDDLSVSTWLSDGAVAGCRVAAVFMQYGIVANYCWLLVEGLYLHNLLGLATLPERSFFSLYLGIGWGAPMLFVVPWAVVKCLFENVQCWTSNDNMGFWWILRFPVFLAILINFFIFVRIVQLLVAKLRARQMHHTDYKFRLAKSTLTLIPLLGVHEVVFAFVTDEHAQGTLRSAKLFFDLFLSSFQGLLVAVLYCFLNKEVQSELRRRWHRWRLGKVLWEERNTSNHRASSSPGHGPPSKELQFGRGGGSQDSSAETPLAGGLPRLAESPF
Method in brief: (§1)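 Peptides as 10-point titrations from DMSO tested on cells expressing human GLP1R or GCGR. cAMP measured by luminescent kit after overnight room-temperature incubation in the dark. EC50 from four-parameter logistic fit; native GLP-1 and glucagon as controls.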

human GLP1R = target: T2, human GLP1R (Homo sapiens, UniProt P43220); assay: cAMP activity assay, cells expressing human GLP1R; format: cell-based; details: cAMP production, assay buffer with or without 20% human serum (not stated which)
T2 construct: expressed in transfected cells; kept under Blasticidin and Hygromycin selection
T2 sequence (P43220 24-463): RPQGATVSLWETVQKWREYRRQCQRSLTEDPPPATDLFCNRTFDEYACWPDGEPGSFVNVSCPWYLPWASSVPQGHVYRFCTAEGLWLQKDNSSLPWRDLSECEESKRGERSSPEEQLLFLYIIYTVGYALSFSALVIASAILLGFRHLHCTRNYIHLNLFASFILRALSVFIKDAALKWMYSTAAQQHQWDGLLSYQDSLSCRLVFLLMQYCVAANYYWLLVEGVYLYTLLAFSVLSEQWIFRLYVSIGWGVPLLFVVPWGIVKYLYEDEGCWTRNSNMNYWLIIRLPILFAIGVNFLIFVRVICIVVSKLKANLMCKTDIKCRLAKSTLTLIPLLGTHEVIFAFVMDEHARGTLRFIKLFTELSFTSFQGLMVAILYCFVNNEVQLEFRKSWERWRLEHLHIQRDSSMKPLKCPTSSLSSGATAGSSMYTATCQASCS
Method in brief: as §1

Row | EC50 (human GCGR) | hGCGR/hGLP1R (hTone) (human GCGR) | EC50 (human GLP1R) | SMILES
1 | 0.03 nM | 0.98 | 0.03 nM | CC(C)C[C@H](NC(=O)[C@H](Cc1ccc(O)cc1)NC(=O)[C@H](CCCCN)NC(=O)[C@H](CO)NC(=O)[C@H](Cc1ccc(O)cc1)NC(=O)[C@H](CC(=O)O)NC(=O)[C@H](CO)NC(=O)[C@@H](NC(=O)[C@H](Cc1ccccc1)NC(=O)[C@@H](NC(=O)CNC(=O)[C@H](CCC(N)=O)NC(=O)C(C)(C)NC(=O)[C@@H](N)Cc1c[nH]cn1)[C@@H](C)O)[C@@H](C)O)C(=O)N[C@@H](CC(=O)O)C(=O)N[C@@H](C)C(=O)N[C@@H](CCCNC(=N)N)C(=O)N[C@@H](C)C(=O)N[C@@H](C)C(=O)N[C@@H](CCC(N)=O)C(=O)N[C@@H](CCCCNC(=O)COCCOCCNC(=O)COCCOCCNC(=O)CC[C@H](NC(=O)CCCCCCCCCCCCCCC(=O)O)C(=O)O)C(=O)N[C@@H](Cc1ccccc1)C(=O)N[C@H](C(=O)N[C@@H](CCC(N)=O)C(=O)N[C@@H](Cc1c[nH]c2ccccc12)C(=O)N[C@@H](CC(C)C)C(=O)N[C@@H](CCS(C)(=O)=O)C(=O)N[C@@H](CC(=O)O)C(=O)N[C@H](C(N)=O)[C@@H](C)O)C(C)C [compound 20] (H-H[Aib]QGTFTSDYSKYLDARAAQK([AEEA-AEEA-γGlu-C16 diacid])FVQWL[Met(O2)]DT-NH2)
2 | 0.02 nM | 0.08 | 0.29 nM | CC(C)C[C@H](NC(=O)[C@H](Cc1ccc(O)cc1)NC(=O)[C@H](CCCCN)NC(=O)[C@H](CO)NC(=O)[C@H](Cc1ccc(O)cc1)NC(=O)[C@H](CC(=O)O)NC(=O)[C@H](CO)NC(=O)[C@@H](NC(=O)[C@H](Cc1ccccc1)NC(=O)[C@@H](NC(=O)CNC(=O)[C@H](CCC(N)=O)NC(=O)[C@@H](CO)NC(=O)[C@@H](N)Cc1c[nH]cn1)[C@@H](C)O)[C@@H](C)O)C(=O)N[C@@H](CC(=O)O)C(=O)N[C@@H](C)C(=O)N[C@@H](CCCNC(=N)N)C(=O)N[C@@H](C)C(=O)N[C@@H](C)C(=O)N[C@@H](Cc1ccc(CNC(=O)COCCOCCNC(=O)COCCOCCNC(=O)CC[C@H](NC(=O)CCCCCCCCCCCCCCC(=O)O)C(=O)O)cc1)C(=O)N[C@@H](CC(=O)O)C(=O)N[C@@H](Cc1ccccc1)C(=O)N[C@H](C(=O)N[C@@H](CCC(N)=O)C(=O)N[C@@H](Cc1c[nH]c2ccccc12)C(=O)N[C@@H](CC(C)C)C(=O)N[C@@H](CC(C)C)C(=O)N[C@@H](CC(=O)O)C(=O)N[C@H](C(N)=O)[C@@H](C)O)C(C)C [compound 22] (H-H[dS]QGTFTSDYSKYLDARAA[Phe(4-CH2NH2)]([AEEA-AEEA-γGlu-C16 diacid])DFVQWLLDT-NH2)
3 | 0.04 nM | 0.14 | 0.27 nM | CC(C)C[C@H](NC(=O)[C@H](Cc1ccc(O)cc1)NC(=O)[C@H](CCCCN)NC(=O)[C@H](CO)NC(=O)[C@H](Cc1ccc(O)cc1)NC(=O)[C@H](CC(=O)O)NC(=O)[C@H](CO)NC(=O)[C@@H](NC(=O)[C@H](Cc1ccccc1)NC(=O)[C@@H](NC(=O)CNC(=O)[C@H](CCC(N)=O)NC(=O)[C@@H](CO)NC(=O)[C@@H](N)Cc1c[nH]cn1)[C@@H](C)O)[C@@H](C)O)C(=O)N[C@@H](CC(=O)O)C(=O)N[C@@H](C)C(=O)N[C@@H](CCCNC(=N)N)C(=O)N[C@@H](C)C(=O)N[C@@H](C)C(=O)N[C@@H](CCC(N)=O)C(=O)N[C@@H](Cc1ccc(CNC(=O)COCCOCCNC(=O)COCCOCCNC(=O)CC[C@H](NC(=O)CCCCCCCCCCCCCCC(=O)O)C(=O)O)cc1)C(=O)N[C@@H](Cc1ccccc1)C(=O)N[C@H](C(=O)N[C@@H](CCC(N)=O)C(=O)N[C@@H](Cc1c[nH]c2ccccc12)C(=O)N[C@@H](CC(C)C)C(=O)N[C@@H](CC(C)C)C(=O)N[C@@H](CC(=O)O)C(=O)N[C@H](C(N)=O)[C@@H](C)O)C(C)C [compound 23] (H-H[dS]QGTFTSDYSKYLDARAAQ[Phe(4-CH2NH2)]([AEEA-AEEA-γGlu-C16 diacid])FVQWLLDT-NH2)
4 | 0.78 nM | 4.76 | 0.37 nM | CC(C)C[C@H](NC(=O)[C@H](Cc1ccc(O)cc1)NC(=O)[C@H](Cc1ccc(CNC(=O)COCCOCCNC(=O)COCCOCCNC(=O)CC[C@H](NC(=O)CCCCCCCCCCCCCCC(=O)O)C(=O)O)cc1)NC(=O)[C@H](CO)NC(=O)[C@H](Cc1ccc(O)cc1)NC(=O)[C@H](CC(=O)O)NC(=O)[C@H](CO)NC(=O)[C@@H](NC(=O)[C@H](Cc1ccccc1)NC(=O)[C@@H](NC(=O)CNC(=O)[C@H](CCC(N)=O)NC(=O)[C@@H](CO)NC(=O)[C@@H](N)Cc1c[nH]cn1)[C@@H](C)O)[C@@H](C)O)C(=O)N[C@@H](CC(=O)O)C(=O)N[C@@H](CCC(=O)O)C(=O)N[C@@H](CCCNC(=N)N)C(=O)N[C@@H](C)C(=O)N[C@@H](C)C(=O)N[C@@H](CCC(N)=O)C(=O)N[C@@H](CC(=O)O)C(=O)N[C@@H](Cc1ccccc1)C(=O)N[C@H](C(=O)N[C@@H](CCC(N)=O)C(=O)N[C@@H](Cc1c[nH]c2ccccc12)C(=O)N[C@@H](CC(C)C)C(=O)N[C@@H](CCS(C)(=O)=O)C(=O)N[C@@H](CC(=O)O)C(=O)N[C@H](C(N)=O)[C@@H](C)O)C(C)C [compound 24] (H-H[dS]QGTFTSDYS[Phe(4-CH2NH2)]([AEEA-AEEA-γGlu-C16 diacid])YLDERAAQDFVQWL[Met(O2)]DT-NH2; N-terminus assumed)
5 | 0.32 nM | 14.00 | 0.02 nM | CC(C)C[C@H](NC(=O)[C@H](Cc1c[nH]c2ccccc12)NC(=O)[C@H](CCC(N)=O)NC(=O)[C@@H](NC(=O)[C@H](Cc1ccccc1)NC(=O)[C@H](CC(=O)O)NC(=O)[C@H](CCC(N)=O)NC(=O)[C@H](C)NC(=O)[C@H](C)NC(=O)[C@H](CCCNC(=N)N)NC(=O)C(C)(C)NC(=O)[C@H](CC(=O)O)NC(=O)[C@H](CC(C)C)NC(=O)[C@H](Cc1ccc(O)cc1)NC(=O)[C@H](Cc1ccc(CNC(=O)COCCOCCNC(=O)COCCOCCNC(=O)CC[C@H](NC(=O)CCCCCCCCCCCCCCC(=O)O)C(=O)O)cc1)NC(=O)[C@H](CO)NC(=O)[C@H](Cc1ccc(O)cc1)NC(=O)[C@H](CC(=O)O)NC(=O)[C@H](CO)NC(=O)[C@@H](NC(=O)[C@H](Cc1ccccc1)NC(=O)[C@@H](NC(=O)CNC(=O)[C@H](CCC(N)=O)NC(=O)C(C)(C)NC(=O)[C@@H](N)Cc1c[nH]cn1)[C@@H](C)O)[C@@H](C)O)C(C)C)C(=O)N[C@@H](CCS(C)(=O)=O)C(=O)N[C@@H](CC(=O)O)C(=O)N[C@H](C(N)=O)[C@@H](C)O [compound 25] (H-H[Aib]QGTFTSDYS[Phe(4-CH2NH2)]([AEEA-AEEA-γGlu-C16 diacid])YLD[Aib]RAAQDFVQWL[Met(O2)]DT-NH2)
6 | 0.52 nM | 4.68 | 0.11 nM | CC(C)C[C@H](NC(=O)[C@H](Cc1ccc(O)cc1)NC(=O)[C@H](CCCCN)NC(=O)[C@H](CO)NC(=O)[C@H](Cc1ccc(O)cc1)NC(=O)[C@H](CC(=O)O)NC(=O)[C@H](CO)NC(=O)[C@@H](NC(=O)[C@H](Cc1ccccc1)NC(=O)[C@@H](NC(=O)CNC(=O)[C@H](CCC(N)=O)NC(=O)C(C)(C)NC(=O)[C@@H](N)Cc1c[nH]cn1)[C@@H](C)O)[C@@H](C)O)C(=O)N[C@@H](CC(=O)O)C(=O)N[C@@H](CCC(=O)O)C(=O)N[C@@H](CCCNC(=N)N)C(=O)N[C@@H](C)C(=O)N[C@@H](C)C(=O)N[C@@H](Cc1ccc(CNC(=O)COCCOCCNC(=O)COCCOCCNC(=O)CC[C@H](NC(=O)CCCCCCCCCCCCCCC(=O)O)C(=O)O)cc1)C(=O)N[C@@H](CC(=O)O)C(=O)N[C@@H](Cc1ccccc1)C(=O)N[C@H](C(=O)N[C@@H](CCC(N)=O)C(=O)N[C@@H](Cc1c[nH]c2ccccc12)C(=O)N[C@@H](CC(C)C)C(=O)N[C@@H](CC(C)C)C(=O)N[C@@H](CCCCN)C(=O)N[C@H](C(N)=O)[C@@H](C)O)C(C)C [compound 26] (H-H[Aib]QGTFTSDYSKYLDERAA[Phe(4-CH2NH2)]([AEEA-AEEA-γGlu-C16 diacid])DFVQWLLKT-NH2)
7 | 0.44 nM | 9.24 | 0.05 nM | CC(C)C[C@H](NC(=O)[C@H](Cc1ccc(O)cc1)NC(=O)[C@H](CCCCN)NC(=O)[C@H](CO)NC(=O)[C@H](Cc1ccc(O)cc1)NC(=O)[C@H](CC(=O)O)NC(=O)[C@H](CO)NC(=O)[C@@H](NC(=O)[C@H](Cc1ccccc1)NC(=O)[C@@H](NC(=O)CNC(=O)[C@H](CCC(N)=O)NC(=O)C(C)(C)NC(=O)[C@@H](N)Cc1c[nH]cn1)[C@@H](C)O)[C@@H](C)O)C(=O)N[C@@H](CC(=O)O)C(=O)N[C@@H](CCC(=O)O)C(=O)N[C@@H](CCCNC(=N)N)C(=O)N[C@@H](C)C(=O)N[C@@H](C)C(=O)N[C@@H](CCC(N)=O)C(=O)N[C@@H](Cc1ccc(CNC(=O)COCCOCCNC(=O)COCCOCCNC(=O)CC[C@H](NC(=O)CCCCCCCCCCCCCCC(=O)O)C(=O)O)cc1)C(=O)N[C@@H](Cc1ccccc1)C(=O)N[C@H](C(=O)N[C@@H](CCC(N)=O)C(=O)N[C@@H](Cc1c[nH]c2ccccc12)C(=O)N[C@@H](CC(C)C)C(=O)N[C@@H](CC(C)C)C(=O)N[C@@H](CCCCN)C(=O)N[C@H](C(N)=O)[C@@H](C)O)C(C)C [compound 27] (H-H[Aib]QGTFTSDYSKYLDERAAQ[Phe(4-CH2NH2)]([AEEA-AEEA-γGlu-C16 diacid])FVQWLLKT-NH2)
